Measured values: patent US10730874B2 (Shire Human Genetic Therapies, Inc., priority 2018, dated 2020)

target: human activated kallikrein enzyme (plasma kallikrein) (Homo sapiens (Human), UniProt P03952); assay: Inhibition of human activated plasma kallikrein, fluorogenic peptide substrate assay, 500 pM enzyme format; assay type: biochemical; conditions: 500 pM activated kallikrein enzyme, 300 uM Pro-Phe-Arg-7-amido-4-methylcoumarin substrate, 30 min preincubation, 10 min at RT; read-out: Primary Dose Response Assay: Average EC50
Sequence (P03952 391-638): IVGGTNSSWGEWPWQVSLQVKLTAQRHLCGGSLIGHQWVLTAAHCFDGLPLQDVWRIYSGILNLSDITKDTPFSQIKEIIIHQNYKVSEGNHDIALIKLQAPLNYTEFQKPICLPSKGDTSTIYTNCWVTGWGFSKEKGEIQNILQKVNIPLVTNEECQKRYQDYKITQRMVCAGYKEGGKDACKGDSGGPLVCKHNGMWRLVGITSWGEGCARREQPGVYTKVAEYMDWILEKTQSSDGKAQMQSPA
Sequence (P03952 20-390 partner): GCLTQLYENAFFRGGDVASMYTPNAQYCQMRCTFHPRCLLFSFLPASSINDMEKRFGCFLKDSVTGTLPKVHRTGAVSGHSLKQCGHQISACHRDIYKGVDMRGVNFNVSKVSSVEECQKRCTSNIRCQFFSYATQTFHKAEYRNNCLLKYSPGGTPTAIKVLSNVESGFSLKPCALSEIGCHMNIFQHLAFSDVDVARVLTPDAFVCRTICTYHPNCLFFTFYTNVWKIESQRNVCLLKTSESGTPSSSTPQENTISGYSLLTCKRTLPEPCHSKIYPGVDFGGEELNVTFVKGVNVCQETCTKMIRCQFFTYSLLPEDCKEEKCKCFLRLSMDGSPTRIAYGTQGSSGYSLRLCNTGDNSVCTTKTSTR
Procedure, shortened: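 Buffer 20 mM Tris pH 7.5, EDTA, NaCl, PEG-400, Triton X-100; 300 uM Pro-Phe-Arg-AMC; enzyme–inhibitor preincubation 30 min RT. Format one: 500 pM kallikrein, 10 min RT reaction; format two: 5 pM kallikrein, 18 h RT reaction. Fluorescence read at 460 nm (380 nm excitation).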

Row | SMILES | EC50 [nM]
1 | CC(c1cn2cc(C3CC3)ccc2n1)n1cc(C(=O)NCc2ncn3ccc(Cl)c(F)c23)nn1 (centres unmarked) [Example I-198, N-((7-chloro-8-fluoroimidazo[1,5-a]pyridin-1-yl)methyl)-1-(1-(6-cyclopropylimidazo[1,2-a]pyridin-2-yl)ethyl)-1H-1,2,3-triazole-4-carboxamide] | < 1
2 | NCCOCc1cc(C2CC2)cn2cc(Cn3cc(C(=O)NCc4ncn5ccc(Cl)c(F)c45)nn3)nc12 [Example I-302, 1-((8-((2-aminoethoxy)methyl)-6-cyclopropylimidazo[1,2-a]pyridin-2-yl)methyl)-N-((7-chloro-8-fluoroimidazo[1,5-a]pyridin-1-yl)methyl)-1H-1,2,3-triazole-4-carboxamide] | < 1
3 | O=C(NCc1ncn2cc(F)c(Cl)cc12)c1cn(Cc2cn3cc(C4CC4)ccc3n2)nn1 [Example I-277, N-((7-chloro-6-fluoroimidazo[1,5-a]pyridin-1-yl)methyl)-1-((6-cyclopropylimidazo[1,2-a]pyridin-2-yl)methyl)-1H-1,2,3-triazole-4-carboxamide] | 10 to 100
4 | O=C(NCc1ncn2ccc(Cl)cc12)c1cnn(Cc2cn3cc(C4CC4)ccc3n2)n1 [Example I-121, N-((7-chloroimidazo[1,5-a]pyridin-1-yl)methyl)-2-((6-cyclopropylimidazo[1,2-a]pyridin-2-yl)methyl)-2H-1,2,3-triazole-4-carboxamide] | < 1
5 | N#Cc1cc(C2CC2)cn2cc(Cc3nnc(C(=O)NCc4ncn5ccc(Cl)c(F)c45)o3)nc12 [Example I-158, N-((7-chloro-8-fluoroimidazo[1,5-a]pyridin-1-yl)methyl)-5-((8-cyano-6-cyclopropylimidazo[1,2-a]pyridin-2-yl)methyl)-1,3,4-oxadiazole-2-carboxamide] | < 1
6 | CC(C)(O)CCc1cc(C2CC2)cn2cc(Cn3cc(C(=O)NCc4ncn5ccc(Cl)cc45)cn3)nc12 [Example I-119, N-((7-chloroimidazo[1,5-a]pyridin-1-yl)methyl)-1-((6-cyclopropyl-8-(3-hydroxy-3-methylbutyl)imidazo[1,2-a]pyridin-2-yl)methyl)-1H-pyrazole-4-carboxamide] | < 1
7 | CCOC(=O)C(C)(C)Oc1cc(C2CC2)cn2cc(Cn3cc(C(=O)NCc4ncn5ccc(Cl)c(F)c45)nn3)nc12 [Example I-223, ethyl 2-((2-((4-(((7-chloro-8-fluoroimidazo[1,5-a]pyridin-1-yl)methyl)carbamoyl)-1H-1,2,3-triazol-1-yl)methyl)-6-cyclopropylimidazo[1,2-a]pyridin-8-yl)oxy)-2-methylpropanoate] | < 1
8 | NC(=O)CCc1cc(C2CC2)cn2cc(Cn3cc(C(=O)NCc4ncn5ccc(Cl)cc45)nn3)nc12 [Example I-183, 1-((8-(3-amino-3-oxopropyl)-6-cyclopropylimidazo[1,2-a]pyridin-2-yl)methyl)-N-((7-chloroimidazo[1,5-a]pyridin-1-yl)methyl)-1H-1,2,3-triazole-4-carboxamide] | < 1
9 | O=C(NCc1ncn2ccc(Cl)cc12)c1ccnc(Cc2ccc3ncc(Cl)cc3c2)c1 [Example I-3, N-((7-chloroimidazo[1,5-a]pyridin-1-yl)methyl)-2-((3-chloroquinolin-6-yl)methyl)isonicotinamide] | 10 to 100
10 | O=C(NCc1ncn2ccc(Cl)c(F)c12)c1cnn(Cc2cn3ncccc3n2)c1 [Example I-285, N-((7-chloro-8-fluoroimidazo[1,5-a]pyridin-1-yl)methyl)-1-(imidazo[1,2-b]pyridazin-2-ylmethyl)-1H-pyrazole-4-carboxamide] | 10 to 100
11 | O=C(NCc1ncn2ccc(Cl)cc12)c1cn(Cc2cn3cc(C4CC4)ccc3n2)nc1C1COC1 [Example I-102, N-((7-chloroimidazo[1,5-a]pyridin-1-yl)methyl)-1-((6-cyclopropylimidazo[1,2-a]pyridin-2-yl)methyl)-3-(oxetan-3-yl)-1H-pyrazole-4-carboxamide] | < 1
